Experimental data: patent US10675277B2, “Complexes of ivacaftor and its salts and derivatives, process for the preparation thereof and pharmaceutical compositions containing them” (NanGenex Nanotechnology Incorporated, priority 2016, dated 2020)

Experiments:
[1] = cited from earlier work; for share of the total dose eliminated as metabolite: oral administration of Ivacaftor
[2] = cited from earlier work
CYP3A = details: in-vitro and clinical studies, humans; cited from earlier work
CFTR protein = CFTR protein (Homo sapiens, UniProt P13569); details: fraction of the potency of Ivacaftor; cited from earlier work
[3] = Apparent solubility by UV-VIS after 100 nm filtration; assay type: physicochemical; details: ultrapurified water, thermodynamic from solid, comparative formulation study, read-out: apparent solubility (comparative measurements, FIG. 15)
Protocol: (§1) The solid complex Ivacaftor formulations were dispersed in ultrapurified water in 1-10 mg/mL Ivacaftor equivalent concentration range. The resulting solutions were filtered by 100 nm disposable syringe filter. The Ivacaftor content in the filtrate was measured by UV-Vis spectrophotometry and the apparent solubility was calculated. The filtrate may contain Ivacaftor complex particles which could not be filtrated out using 100 nm pore size filter.
as §1, with “1” for “1-10”

CFTR protein, sequence (P13569 whole entry): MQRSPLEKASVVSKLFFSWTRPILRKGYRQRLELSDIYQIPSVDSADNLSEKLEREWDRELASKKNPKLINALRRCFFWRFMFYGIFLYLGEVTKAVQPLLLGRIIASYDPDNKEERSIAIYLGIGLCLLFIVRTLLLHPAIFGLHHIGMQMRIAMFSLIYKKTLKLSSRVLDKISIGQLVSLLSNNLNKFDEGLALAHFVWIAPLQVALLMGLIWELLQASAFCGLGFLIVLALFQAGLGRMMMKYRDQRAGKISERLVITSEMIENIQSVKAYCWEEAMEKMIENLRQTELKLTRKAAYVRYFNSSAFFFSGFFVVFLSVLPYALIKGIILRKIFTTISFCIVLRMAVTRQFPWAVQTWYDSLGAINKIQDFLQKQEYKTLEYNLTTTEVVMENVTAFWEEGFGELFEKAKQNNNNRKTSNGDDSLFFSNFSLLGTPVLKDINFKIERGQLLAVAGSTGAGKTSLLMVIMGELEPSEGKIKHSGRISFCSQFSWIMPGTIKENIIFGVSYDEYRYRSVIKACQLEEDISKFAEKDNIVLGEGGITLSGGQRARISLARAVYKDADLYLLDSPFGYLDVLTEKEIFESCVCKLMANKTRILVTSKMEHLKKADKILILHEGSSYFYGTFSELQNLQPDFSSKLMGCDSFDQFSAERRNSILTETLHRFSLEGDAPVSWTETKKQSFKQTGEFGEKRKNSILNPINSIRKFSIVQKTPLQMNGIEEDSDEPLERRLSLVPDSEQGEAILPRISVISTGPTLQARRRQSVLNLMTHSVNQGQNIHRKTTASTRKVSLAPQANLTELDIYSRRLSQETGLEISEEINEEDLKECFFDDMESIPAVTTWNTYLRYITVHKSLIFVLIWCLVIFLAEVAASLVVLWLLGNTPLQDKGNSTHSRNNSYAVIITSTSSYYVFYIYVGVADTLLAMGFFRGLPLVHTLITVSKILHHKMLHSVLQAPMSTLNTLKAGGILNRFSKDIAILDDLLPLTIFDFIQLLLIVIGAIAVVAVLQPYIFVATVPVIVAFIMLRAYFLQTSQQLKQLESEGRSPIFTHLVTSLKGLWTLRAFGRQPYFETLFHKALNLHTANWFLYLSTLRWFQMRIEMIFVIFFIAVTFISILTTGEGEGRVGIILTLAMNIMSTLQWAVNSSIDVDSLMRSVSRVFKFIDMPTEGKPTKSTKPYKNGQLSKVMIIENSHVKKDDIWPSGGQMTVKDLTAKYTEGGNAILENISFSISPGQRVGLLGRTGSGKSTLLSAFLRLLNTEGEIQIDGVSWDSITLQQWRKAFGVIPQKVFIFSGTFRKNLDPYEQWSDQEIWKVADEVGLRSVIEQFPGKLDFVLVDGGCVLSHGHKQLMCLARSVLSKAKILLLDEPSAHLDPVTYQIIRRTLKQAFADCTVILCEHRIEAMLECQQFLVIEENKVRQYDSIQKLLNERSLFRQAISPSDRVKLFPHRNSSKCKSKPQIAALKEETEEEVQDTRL

## CC(C)(C)c1cc(C(C)(C)C)c(NC(=O)c2c[nH]c3ccccc3c2=O)cc1O [Ivacaftor, N-(2,4-di-tert-butyl-5-hydroxyphenyl)-1,4-dihydro-4-oxoquinoline-3-carboxamide]
[1]; human, in vivo
  mean apparent clearance (CL/F), healthy subjects versus patients with CF: similar
[1]; oral administration
  eliminated in the feces after metabolic conversion: 87.8%
  urinary excretion as unchanged parent: negligible
[1]; single 150 mg oral dose, healthy volunteers, fed state
  tmax (peak plasma concentrations): approximately 4 hours
[1]; single dose of 275 mg of KALYDECO, fed state
  mean apparent volume of distribution (Vz/F), healthy subjects versus patients with CF: similar
[1]; single dose
  apparent terminal half-life: approximately 12 hours
[2]
  solubility in water: < 0.05 microgram/mL
CYP3A
  metabolism: primarily metabolized by CYP3A

## CC(C)(C)c1cc(C(C)(C)C(=O)O)c(O)cc1NC(=O)c1c[nH]c2ccccc2c1=O [M6]
CFTR protein
  potency relative to Ivacaftor: less than one-fiftieth
[1]
  share of the total dose eliminated as metabolite: 43%

## CC(C)(C)c1cc(C(C)(C)CO)c(O)cc1NC(=O)c1c[nH]c2ccccc2c1=O [M1]
CFTR protein
  potency relative to Ivacaftor: approximately one-sixth
[1]
  share of the total dose eliminated as metabolite: 22%

## CC(C)(C)c1cc(C(C)(C)C)c(NC(=O)c2c[nH]c3ccccc3c2=O)cc1O [crystalline Ivacaftor, N-(2,4-di-tert-butyl-5-hydroxyphenyl)-1,4-dihydro-4-oxoquinoline-3-carboxamide]
[3]
  solubility: < 100 µg/mL
